Experimental data published in the NIST ThermoML archive (doi:10.1016/j.jct.2005.03.023).
Numbers after ± are expanded uncertainties.

Assay: mn = molality of the nth substance listed, in mol/kg
Settings: 101.3 kPa, Liquid

O=C[C@H](O)[C@@H](O)[C@H](O)CO [D-xylose] + O
mass density [kg/m3]
Settings	m1 = 0.25	m1 = 0.4	m1 = 0.55	m1 = 0.7	m1 = 0.85	m1 = 1
278.15 K	1013.81 ± 0.39	1021.78 ± 0.42	1029.49 ± 0.45	1036.97 ± 0.48	1044.24 ± 0.51	1051.27 ± 0.54
288.15 K	1012.76 ± 0.38	1020.47 ± 0.41	1028.02 ± 0.45	1035.37 ± 0.48	1042.46 ± 0.51	1049.35 ± 0.53
298.15 K	1010.39 ± 0.37	1018.06 ± 0.4	1025.49 ± 0.43	1032.72 ± 0.47	1039.74 ± 0.49	1046.52 ± 0.52
308.15 K	1007.15 ± 0.36	1014.77 ± 0.39	1022.12 ± 0.42	1029.24 ± 0.45	1036.18 ± 0.48	1042.87 ± 0.51
318.15 K	1003.29 ± 0.34	1010.79 ± 0.38	1018.05 ± 0.41	1025.13 ± 0.44	1031.95 ± 0.46	1038.63 ± 0.49
